Reference: patent US4954518A, “4H-1-benzopyran-4-one derivative or its salt, process for producing the same and pharmaceutical composition comprising the same as active ingredient” (Toyama Chemical Company, Ltd., priority 1987, dated 1990)

System: mice
Assay: Oral acute toxicity in mice
Type: in vivo, ICR strain male mice
Settings: mouse, in vivo, po, 500 mg/kg
Procedure: (§1) ICR strain male mice (body weight: 20-25 g, […], 3 mice per group) were tested for oral acute toxicity. A test compound suspended in 0.5% (w/v) aqueous carboxymethylcellulose solution was orally administered to the mice in a proportion of 0.2 ml/10 g of body weight. After the administration, general symptom was observed over one week.
With Cc1ccccc1Oc1cc2c(=O)c(NC=O)coc2cc1NS(C)(=O)=O [Compound 46] the behavioural changes was “no behavioural changes were observed”. For CS(=O)(=O)Nc1cc2occ(NC=O)c(=O)c2cc1Oc1ccccc1 [Compound 99], the behavioural changes was “no behavioural changes were observed”. For CS(=O)(=O)Nc1cc2occc(=O)c2cc1Oc1ccccc1 [Compound 1, 7-methylsulfonylamino-6-phenoxy4H-1-benzopyran-4-one], the behavioural changes was “no behavioural changes were observed”. In the case of CS(=O)(=O)Nc1cc2occ(NC=O)c(=O)c2cc1Oc1ccccc1F [Compound 34], the behavioural changes is reported as “no behavioural changes were observed”. In the case of CS(=O)(=O)Nc1cc2occc(=O)c2cc1Oc1ccc(F)cc1F [Compound 94, 6-(2,4-difluorophenoxy)-7-methylsulfonylamino-4H-1-benzopyran-4-one], the behavioural changes is reported as “no behavioural changes were observed”. For CS(=O)(=O)Nc1cc2occ(NC=O)c(=O)c2cc1Oc1ccc(F)cc1F [Compound 39], the behavioural changes was “no behavioural changes were observed”.

Same assay, conditions: oral, dose of 500 mg/kg, observed over one week
For Cc1ccccc1Oc1cc2c(=O)c(NC=O)coc2cc1NS(C)(=O)=O [Compound 46], the death cases was “no death case was found”. In the case of CS(=O)(=O)Nc1cc2occ(NC=O)c(=O)c2cc1Oc1ccccc1 [Compound 99], the death cases is reported as “no death case was found”. For CS(=O)(=O)Nc1cc2occc(=O)c2cc1Oc1ccccc1 [Compound 1, 7-methylsulfonylamino-6-phenoxy4H-1-benzopyran-4-one], the death cases was “no death case was found”. With CS(=O)(=O)Nc1cc2occ(NC=O)c(=O)c2cc1Oc1ccccc1F [Compound 34] the death cases was “no death case was found”. For CS(=O)(=O)Nc1cc2occc(=O)c2cc1Oc1ccc(F)cc1F [Compound 94, 6-(2,4-difluorophenoxy)-7-methylsulfonylamino-4H-1-benzopyran-4-one], the death cases was “no death case was found”. With CS(=O)(=O)Nc1cc2occ(NC=O)c(=O)c2cc1Oc1ccc(F)cc1F [Compound 39] the death cases was “no death case was found”.

System: not listed separately
Assay: Oral acute toxicity in mice
Type: in vivo, ICR strain male mice
Settings: mouse, in vivo; oral, mice
Procedure: as §1
COc1ccc2c(c1)c(CC(=O)O)c(C)n2C(=O)c1ccc(Cl)cc1 [IM, indomethacin, reference compound] showed an LD50 at 168 h of 25 mg/kg.

System: Carrageenin-Induced Paw Edema
Assay: Carrageenin-induced paw edema in rats (inhibitory activity)
Type: in vivo, male rats of Donryu strain
Settings: Rattus norvegicus, po, 3 h, read-out: Inhibitory effect (carrageenin-induced paw edema)
Procedure: (1) Carrageenin-induced paw edema
This inhibitory activity was tested according to the method of C. A. Winter et al. [Proceedings of the Society for Experimental Biology and Medicine, vol.
After one hour, 0.1 ml of a 1% carrageenin was injected into the subplantar region of the left hind paw. Three hours after carrageenin injection, the paw volume was measured plethysmographically and the percent swelling was determined from the volume before injection and the inhibitory percentage was calculated according to the following equation: [formula]
For COc1ccc2c(c1)c(CC(=O)O)c(C)n2C(=O)c1ccc(Cl)cc1 [IM, indomethacin, reference compound], the inhibition in vivo at 10 mg/kg was over 40%.

Same assay, conditions: Rattus norvegicus; 10 mg/kg oral, 1 h before carrageenin; paw volume 3 h after; read-out: Inhibitory effect (carrageenin-induced paw edema)
In the case of Cc1ccccc1Oc1cc2c(=O)c(NC=O)coc2cc1NS(C)(=O)=O [Compound 46], the inhibition in vivo at 10 mg/kg is reported as over 40%. With CN(C=O)c1coc2cc(NS(C)(=O)=O)c(Oc3ccccc3)cc2c1=O [Compound 100] the inhibition in vivo at 10 mg/kg was over 40%. Work on CS(=O)(=O)Nc1cc2occ(NC=O)c(=O)c2cc1Oc1ccccc1 [Compound 99] yielded an inhibition in vivo at 10 mg/kg of over 40%. Compound CS(=O)(=O)Nc1cc2occ(NC=O)c(=O)c2cc1Sc1ccccc1 [Compound 88] has an inhibition in vivo at 10 mg/kg of 30 to 40%. For CSc1coc2cc(NS(C)(=O)=O)c(Oc3ccccc3)cc2c1=O [Compound 4, 7-methylsulfonylamino-3-methylthio-6-phenoxy-4H-1-benzopyran-4-one], the inhibition in vivo at 10 mg/kg was 20 to 30%. With Cc1oc2cc(NS(C)(=O)=O)c(Oc3ccccc3)cc2c(=O)c1C(N)=O [Compound 61] the inhibition in vivo at 10 mg/kg was 15 to 20%. In the case of O=CNc1coc2cc(NS(=O)(=O)CCl)c(Oc3ccccc3)cc2c1=O [Compound 40], the inhibition in vivo at 10 mg/kg is reported as over 40%. CS(=O)(=O)Nc1cc2occc(=O)c2cc1Oc1ccccc1 [Compound 1, 7-methylsulfonylamino-6-phenoxy4H-1-benzopyran-4-one] showed an inhibition in vivo at 10 mg/kg of 30 to 40%. With CC(=O)N(c1cc2occc(=O)c2cc1Oc1ccccc1)S(C)(=O)=O [Compound 96] the inhibition in vivo at 10 mg/kg was 30 to 40%. In the case of CNc1coc2cc(NS(C)(=O)=O)c(Oc3ccccc3)cc2c1=O [Compound 101], the inhibition in vivo at 10 mg/kg is reported as 30 to 40%. With CS(=O)(=O)Nc1cc2occ(NC=O)c(=O)c2cc1Oc1ccccc1F [Compound 34] the inhibition in vivo at 10 mg/kg was over 40%. CS(=O)(=O)Nc1cc2occc(=O)c2cc1Oc1ccc(F)cc1F [Compound 94, 6-(2,4-difluorophenoxy)-7-methylsulfonylamino-4H-1-benzopyran-4-one] showed an inhibition in vivo at 10 mg/kg of 30 to 40%. CS(=O)(=O)Nc1cc2occ(C(N)=O)c(=O)c2cc1Oc1ccccc1 [Compound 122] gave an inhibition in vivo at 10 mg/kg of 20 to 30%. CS(=O)(=O)Nc1cc2occc(=O)c2cc1Nc1ccccc1 [Compound 12] showed an inhibition in vivo at 10 mg/kg of 30 to 40%. Compound CS(=O)(=O)Nc1cc2occ(NC=O)c(=O)c2cc1Oc1ccc(F)cc1F [Compound 39] has an inhibition in vivo at 10 mg/kg of over 40%. Cc1cc(=O)c2cc(Oc3ccccc3)c(NS(C)(=O)=O)cc2o1 [Compound 9] gave an inhibition in vivo at 10 mg/kg of 20 to 30%.

System: Adjuvant Arthritis
Assay: Adjuvant-induced arthritis in rats (inhibitory activity)
Type: in vivo, male rats of Westar-Lewis strain
Settings: 1 mg/kg oral once a day, seven continuous days
Procedure: (2) Adjuvant-induced arthritis
This inhibitory activity was tested according to the method of E. M. Glenn [American Journal of Veterinary Research, vol. 27, p. 339 (1966)].
To male rats of Westar-Lewis strain (body weight: 190-230 g, 5 rats per group) was intradermally injected 0.1 ml of a suspension of heat-killed Mycobacterium tuberculosis in liquid paraffin at a concentration of 6 mg/ml as the adjuvant into the root of tail. Eighteen days after the adjuvant injection, the rats were classified based on the volume of both hind paws, and then a suspension of the test compound in 0.5% (w/v) aqueous carboxymethylcellulose solution was orally administered to the classified rats in a proportion of 1 ml/100 g of body weight once a day for seven continuous days (see Table 3) or four continuous days (see Table 4). On the day following the last administration, the volume of both hind paws was measured, and in the same manner as in (1) above, the inhibitory effect was determined. Incidentally, the result is shown in Tables 3 and 4 in terms of the inhibitory effect indicated below based on inhibition (x%).
In the case of COc1ccc2c(c1)c(CC(=O)O)c(C)n2C(=O)c1ccc(Cl)cc1 [IM, indomethacin, reference compound], the “Inhibitory effect (adjuvant arthritis, Table 3)” value (from here on “Inhibitory effect”) is reported as “+++ (30 ≤ × < 40)”.

Same assay, conditions: 10 mg/kg oral once a day, seven continuous days
With CS(=O)(=O)Nc1cc2occc(=O)c2cc1Oc1ccccc1 [Compound 1, 7-methylsulfonylamino-6-phenoxy4H-1-benzopyran-4-one] the “Inhibitory effect” value was “+++ (30 ≤ × < 40)”. With CC(=O)N(c1cc2occc(=O)c2cc1Oc1ccccc1)S(C)(=O)=O [Compound 96] the “Inhibitory effect” value was “++++ (× ≥ 40)”. In the case of CS(=O)(=O)Nc1cc2occc(=O)c2cc1Oc1ccc(F)cc1F [Compound 94, 6-(2,4-difluorophenoxy)-7-methylsulfonylamino-4H-1-benzopyran-4-one], the “Inhibitory effect” value is reported as “++++ (× ≥ 40)”. For Cc1cc(=O)c2cc(Oc3ccccc3)c(NS(C)(=O)=O)cc2o1 [Compound 9], the “Inhibitory effect” value was “++++ (× ≥ 40)”.

Same assay, conditions: Rattus norvegicus, po, read-out: Inhibitory effect (adjuvant arthritis, Table 4)
In the case of COc1ccc2c(c1)c(CC(=O)O)c(C)n2C(=O)c1ccc(Cl)cc1 [IM, indomethacin, reference compound], the inhibition in vivo at 3 mg/kg is reported as 30 to 40%.

Same assay, conditions: Rattus norvegicus; 3 mg/kg oral once a day, four continuous days; read-out: Inhibitory effect (adjuvant arthritis, Table 4)
Cc1ccccc1Oc1cc2c(=O)c(NC=O)coc2cc1NS(C)(=O)=O [Compound 46] showed an inhibition in vivo at 3 mg/kg of 20 to 30%. CS(=O)(=O)Nc1cc2occ(NC=O)c(=O)c2cc1Oc1ccccc1 [Compound 99] showed an inhibition in vivo at 3 mg/kg of 20 to 30%. For CSc1coc2cc(NS(C)(=O)=O)c(Oc3ccccc3)cc2c1=O [Compound 4, 7-methylsulfonylamino-3-methylthio-6-phenoxy-4H-1-benzopyran-4-one], the inhibition in vivo at 3 mg/kg was 20 to 30%. O=CNc1coc2cc(NS(=O)(=O)CCl)c(Oc3ccccc3)cc2c1=O [Compound 40] showed an inhibition in vivo at 3 mg/kg of 20 to 30%. In the case of CS(=O)(=O)Nc1cc2occ(NC=O)c(=O)c2cc1Oc1ccccc1F [Compound 34], the inhibition in vivo at 3 mg/kg is reported as 30 to 40%. Work on CS(=O)(=O)Nc1cc2occ(C(N)=O)c(=O)c2cc1Oc1ccccc1 [Compound 122] yielded an inhibition in vivo at 3 mg/kg of 20 to 30%. In the case of CS(=O)(=O)Nc1cc2occc(=O)c2cc1Nc1ccccc1 [Compound 12], the inhibition in vivo at 3 mg/kg is reported as 30 to 40%. Work on CS(=O)(=O)Nc1cc2occ(NC=O)c(=O)c2cc1Oc1ccc(F)cc1F [Compound 39] yielded an inhibition in vivo at 3 mg/kg of 20 to 30%.

Same assay, conditions: Rattus norvegicus; 10 mg/kg oral once a day, four continuous days; read-out: Inhibitory effect (adjuvant arthritis, Table 4)
Compound CN(C=O)c1coc2cc(NS(C)(=O)=O)c(Oc3ccccc3)cc2c1=O [Compound 100] has an inhibition in vivo at 10 mg/kg of 20 to 30%. Compound CS(=O)(=O)Nc1cc2occ(NC=O)c(=O)c2cc1Sc1ccccc1 [Compound 88] has an inhibition in vivo at 10 mg/kg of 20 to 30%. With Cc1oc2cc(NS(C)(=O)=O)c(Oc3ccccc3)cc2c(=O)c1C(N)=O [Compound 61] the inhibition in vivo at 10 mg/kg was 30 to 40%. Work on CNc1coc2cc(NS(C)(=O)=O)c(Oc3ccccc3)cc2c1=O [Compound 101] yielded an inhibition in vivo at 10 mg/kg of 20 to 30%.

System: not listed separately
Assay: Ulcerogenic effect in rats
Parameters: species or system male rats of Wister strain
Settings: rat, in vivo, po
Procedure: To male rats of Wister strain (body weight: 180-230 g, 7 to 8 rats per group) which had been fasted for 24 hours with free access to water was orally administered a test compound suspended in 0.5% (w/v) aqueous carboxymethylcellulose solution in a proportion of 1 ml/100 g of body weight. The rats were allowed to stand under abstinence from food and water for 24 hours, and thereafter, sacrificed by dislocation of cervical vertebrae, after which the stomach was removed and fixed in 1% (v/v) formaline solution for 30 minutes. This stomach was split along the greater curvature and the length (mm) of the erosion and ulcer formed on the gastric mucosa was measured by a stereomicroscope, and the total sum of the lengths (lmm) was determined, from which ulcerogenic index was assessed based on the following arbitrary scale:
Subsequently, UD50 (mg/kg) which is the dose of the test compound which induces ulcerogenic index 5 was determined on each test compound.
*Rats were allowed to stand for 5 hours under abstinence from food and […]
In the case of Cc1ccccc1Oc1cc2c(=O)c(NC=O)coc2cc1NS(C)(=O)=O [Compound 46], the TD50 at 24 h is reported as over 500 mg/kg. For CS(=O)(=O)Nc1cc2occ(NC=O)c(=O)c2cc1Oc1ccccc1 [Compound 99], the TD50 at 24 h was over 500 mg/kg. CS(=O)(=O)Nc1cc2occc(=O)c2cc1Oc1ccccc1 [Compound 1, 7-methylsulfonylamino-6-phenoxy4H-1-benzopyran-4-one] showed a TD50 at 5 h of over 300 mg/kg. CS(=O)(=O)Nc1cc2occ(NC=O)c(=O)c2cc1Oc1ccccc1F [Compound 34] showed a TD50 at 24 h of over 500 mg/kg. For CS(=O)(=O)Nc1cc2occc(=O)c2cc1Oc1ccc(F)cc1F [Compound 94, 6-(2,4-difluorophenoxy)-7-methylsulfonylamino-4H-1-benzopyran-4-one], the TD50 at 5 h was over 300 mg/kg. Work on CS(=O)(=O)Nc1cc2occ(NC=O)c(=O)c2cc1Oc1ccc(F)cc1F [Compound 39] yielded a TD50 at 24 h of over 500 mg/kg.

Same assay, conditions: rat, in vivo; oral; 24 hours under abstinence from food and water; read-out: UD50 (dose which induces ulcerogenic index 5)
COc1ccc2c(c1)c(CC(=O)O)c(C)n2C(=O)c1ccc(Cl)cc1 [IM, indomethacin, reference compound] gave a TD50 at 24 h of 4.3 mg/kg.
